Patent US12053507B2, “Combination therapies for inhibiting sprout angiogenesis in the treatment of cancers” ([…] OF PHARMACY, LLC, priority 2010, dated 2024)
“Also recorded” adds a separate entry of the source.

Assays:
[1] = system: human dermal microvascular endothelial cells (HDMEC); test: microcarrier in vitro 3D sprout angiogenesis assay of HDMEC in fibrin gel; assay type: cell-based
Description: Human dermal microvascular endothelial cells (HDMEC) were isolated from human neonatal foreskins. Briefly, after initial harvest from minced trypsinized human foreskins, microvascular endothelial cells were further purified on a PERCOLL® density gradient. […] HDMEC were cultured on collagen type 1 coated tissue culture flasks in EGM (endothelial cell growth medium) consisting of EBM supplemented with 10 ng/ml epidermal growth factor, 0.4% bovine brain extract, 17.5 microg/ml dibutyryl cyclic AMP, and 1 microg/ml hydrocortisone in the presence of 30% normal human serum. […] All experiments were done with HDMEC below passage 10. Bovine aortic endothelial cells (BAEC) were obtained from BioWhittaker, Inc. (Walkersville, MD) and cultured according to manufacturer's instruction. BAEC between passage 4 and 8 were used for experiments.
Gelatin-coated CYTODEX®-3 microcarrier beads were prepared as described by the manufacturer. Approximately 80,000 sterile microcarrier beads were washed, resuspended in EGM, and added to approximately 4.5 million endothelial cells (HDMEC or BAEC). The beads and cells were mixed by gentle swirling, incubated at 37° C. for 6 hr, and then rotated for 24-36 hr on an orbital mixer in a 37° C. oven to generate endothelial cell-loaded microcarrier beads (EC-beads).
FIGS. 1A-1C illustrate a study of human microvascular endothelial cell angiogenesis, according to some embodiments. A microcarrier, in vitro angiogenesis assay, previously designed to investigate bovine pulmonary artery endothelial cell angiogenic behavior in bovine fibrin gels, was modified for the study of human microvascular endothelial cell angiogenesis. The HDMEC were isolated from human neonatal foreskins and used, as described above, and images were captured at various magnifications, where the effect of angiogenic factors on sprout angiogenesis was quantified visually by counting the number and percent of EC-beads with capillary sprouts.
An isotonic 1.5 mg/ml collagen solution was prepared by mixing sterile native bovine type I &III collagen (VITROGEN®, Collagen Biomaterials, Palo Alto, CA) in 5XM199 medium and distilled water. The pH was adjusted to 7.4 using 1N NaOH.
For experiments using RGD peptides, EC-beads were firstly incubated with vary concentrations of peptides for one hour and then were added to the ECM solutions. About 500 EC-beads were then added to the ECM protein solutions, followed by the addition of 0.5 U/ml human thrombin. A 0.3 ml aliquot of each suspension was immediately added to appropriate wells of a 24-well tissue culture plate. After gelation, 1 ml of fresh assay medium (EBM supplemented with 20% normal human serum for HDMEC or EBM supplemented with 10% fetal bovine serum for BAEC) was added to each well.
FIGS. 1B and 1C show how the angiogenic response was monitored visually and recorded by video image capture. Specifically, capillary sprout formation was observed and recorded with a NIKON® Diaphot-TMD inverted microscope (Nikon Inc., Melville, NY), equipped with an incubator housing with a NIKON® NP-2 thermostat and Sheldon #2004 carbon dioxide flow mixer. […] The effect of angiogenic factors on sprout angiogenesis was quantified visually by determining the number and percent of EC-beads with capillary sprouts. 100-200 beads (five random low power fields) in each of triplicate wells were counted for each experimental condition. […]

VEGF = conditions: colorectal cancer; in combination with standard Saltz regime of irinotecan, 5-fluorouracil, and leucovorin; cited from earlier work
αvβ3 integrin = αvβ3 integrin (Homo sapiens, UniProt P05106+P06756); conditions: cited from earlier work
[2] = single agent, HDMEC in 3D fibrin matrix, stimulated with VEGF and bFGF

Sequence of VEGF (P15692 207-311 limits assumed): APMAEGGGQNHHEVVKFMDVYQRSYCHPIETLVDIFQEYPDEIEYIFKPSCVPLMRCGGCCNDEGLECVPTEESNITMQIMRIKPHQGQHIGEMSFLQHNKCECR
Sequence of αvβ3 integrin (P06756 31-889 limits assumed): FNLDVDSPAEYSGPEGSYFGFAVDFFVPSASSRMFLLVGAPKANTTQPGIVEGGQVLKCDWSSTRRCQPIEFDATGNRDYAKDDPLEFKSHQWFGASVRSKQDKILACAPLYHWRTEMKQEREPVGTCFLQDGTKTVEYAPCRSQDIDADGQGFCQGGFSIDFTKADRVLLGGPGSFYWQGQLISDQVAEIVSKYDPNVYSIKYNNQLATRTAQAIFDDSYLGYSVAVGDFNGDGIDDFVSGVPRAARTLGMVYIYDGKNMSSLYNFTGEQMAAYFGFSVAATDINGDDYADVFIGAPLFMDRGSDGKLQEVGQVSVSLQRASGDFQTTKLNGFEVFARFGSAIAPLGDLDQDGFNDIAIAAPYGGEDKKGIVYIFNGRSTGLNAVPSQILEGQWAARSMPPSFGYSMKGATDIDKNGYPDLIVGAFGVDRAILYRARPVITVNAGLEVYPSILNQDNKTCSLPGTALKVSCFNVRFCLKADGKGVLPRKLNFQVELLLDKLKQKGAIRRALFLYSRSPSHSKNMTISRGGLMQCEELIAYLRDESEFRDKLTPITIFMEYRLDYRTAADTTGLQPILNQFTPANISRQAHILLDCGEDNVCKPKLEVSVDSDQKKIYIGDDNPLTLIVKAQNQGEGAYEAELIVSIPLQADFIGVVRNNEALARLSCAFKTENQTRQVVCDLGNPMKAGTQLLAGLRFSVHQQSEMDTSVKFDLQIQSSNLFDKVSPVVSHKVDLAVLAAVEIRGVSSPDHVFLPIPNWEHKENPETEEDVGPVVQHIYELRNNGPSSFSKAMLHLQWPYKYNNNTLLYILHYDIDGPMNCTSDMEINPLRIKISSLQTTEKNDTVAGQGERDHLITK
Sequence of αvβ3 integrin (P06756 891-1048 partner limits assumed): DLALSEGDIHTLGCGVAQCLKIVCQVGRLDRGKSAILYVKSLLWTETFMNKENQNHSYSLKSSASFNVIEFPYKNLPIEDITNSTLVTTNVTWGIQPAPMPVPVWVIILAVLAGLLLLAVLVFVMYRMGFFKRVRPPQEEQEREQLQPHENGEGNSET
Sequence of αvβ3 integrin (P05106 27-788): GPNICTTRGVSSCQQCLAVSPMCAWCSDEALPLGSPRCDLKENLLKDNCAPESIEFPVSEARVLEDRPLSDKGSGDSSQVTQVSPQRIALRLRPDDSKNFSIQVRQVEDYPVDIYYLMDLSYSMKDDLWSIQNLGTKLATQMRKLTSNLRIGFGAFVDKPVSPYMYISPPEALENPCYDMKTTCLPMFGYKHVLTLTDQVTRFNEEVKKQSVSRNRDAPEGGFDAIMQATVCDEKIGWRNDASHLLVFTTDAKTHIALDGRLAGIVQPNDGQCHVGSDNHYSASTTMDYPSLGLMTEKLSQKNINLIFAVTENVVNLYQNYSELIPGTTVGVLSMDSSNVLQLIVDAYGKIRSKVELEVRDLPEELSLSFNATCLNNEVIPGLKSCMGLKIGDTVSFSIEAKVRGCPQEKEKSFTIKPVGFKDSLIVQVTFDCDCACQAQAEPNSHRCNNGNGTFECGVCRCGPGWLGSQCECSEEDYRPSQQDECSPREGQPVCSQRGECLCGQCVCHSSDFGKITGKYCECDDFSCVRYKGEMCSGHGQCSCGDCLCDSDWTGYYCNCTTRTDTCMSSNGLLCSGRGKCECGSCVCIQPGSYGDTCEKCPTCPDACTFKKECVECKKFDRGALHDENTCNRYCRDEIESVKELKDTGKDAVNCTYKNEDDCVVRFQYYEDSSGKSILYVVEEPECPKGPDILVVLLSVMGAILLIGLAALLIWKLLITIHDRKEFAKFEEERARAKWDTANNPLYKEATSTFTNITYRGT

Substance	inhibition of sprout angiogenesis [1, 2]	increase of survival time (VEGF)	inhibition of sprout angiogenesis ([1]; echistatin alone at 0.1 μg/ml, HDMEC in fibrin)	inhibition of sprout angiogenesis ([1]; echistatin alone, 1 μg/ml to 10 μg/ml, HDMEC in fibrin)	inhibition of sprout angiogenesis ([1]; single agent, HDMEC in 3D fibrin matrix, stimulated with VEGF and bFGF, listed as Echistatin)	αvβ3 integrin antagonism (αvβ3 integrin)
cyclo (Arg-Gly-Asp-d-Phe-Cys) [cRGDfC, reference compound]	dose dependently inhibited sprout angiogenesis	–	–	–	–	–
AVASTATIN® (bevacizumab): human monoclonal antibody to VEGF	–	more than 30%	–	–	–	–
echistatin (QCESGPCCRNCKFLKEGTICKRARGDDMDDYCNGKTCDCPRNPHKGPAT; listed as Echis carinatus)	inhibition of sprout angiogenesis; also recorded: dose dependently inhibited sprout angiogenesis	–	little inhibitory effect	dose dependently	dose dependently inhibits sprout angiogenesis	potent irreversible αvβ3 integrin antagonist
